From patent US9115083B2 (Simpson Biotech Co., Ltd, priority 2011, dated 2015)
Like-named read-outs stand apart in the source and are kept apart here.

Tests used:
HIV-1 protease = HIV-1 protease (Human immunodeficiency virus type 1 group M subtype B (isolate HXB2) (HIV-1), UniProt P04585); assay: HIV-1 protease inhibition assay (HPLC of hydrolysis product); type: biochemical
Procedure: HIV was a retrovirus with a single-stranded RNA genome. HIV protease was an important enzyme for replication. Translated proteins in the host cell were out into the desired shape by the enzyme. The substance was a protein dimer consisting of 99 amino acids, and the active center was Asp residues.
In this assay, oligopeptide (His-Lys-Ala-Arg-Val-Leu-Phe(NO2)-Glu-Ala-NLe-Ser-NH2) with strengthened absorbance was prepared as a substrate, in which para site of […] was modified by nitro. The substrate was incubated in the presence of HIV-1 protease and the test samples. Generation ratio of hydrolysis product (Phe (NO2)-Glu-Ala-NLe-Ser-NH2) was analyzed by HPLC, and the HIV-1 inhibitory activity in test sample was detected (Y. Wei, C. M. Ma, D. Y. Chen and M. Hattori: Anti-HIV-1 Protease Triterpenoids from Stauntonia Obovatifoloala Hayata Subsp. Phytochemistry, 69, 1875-1879, 2008). In this assay, pepsatatin A was used as a positive control.

HCV protease = HCV protease (Hepatitis C virus genotype 1a (isolate H77) (HCV), UniProt P27958); settings: from PCT publication No. WO 2009/094807, cited from earlier work; for IC50: read-out: anti HCV activity
[1] = molecular target: dipeptidyl peptidase-IV (DPPIV) (Homo sapiens (Human), UniProt P27487); assay: dipeptidyl peptidase-IV (DPPIV) assay; type: biochemical; settings: Table 10, first scaffold; read-out: IC50 against DPPIV (converted)
Text: In addition, the dipeptidyl peptidase-IV (DPPIV) assay herein was applied to investigate the DPPIV inhibitory activity of the prepared compounds as described above. The method of the DPPIV assay was described in Lin et al., 1998. Inhibition of dipeptidyl peptidase IV by fluoroolefin-containing N-peptidyl-O-hydroxylamine peptidomimetics. Proc. Natl. Acad. Sci. USA Vol. 95, pp. 14020-14024.

NS3/4A HCV protease = NS3/4A HCV protease (Hepatitis C virus genotype 1a (isolate H77) (HCV), UniProt P27958); assay: NS3/4A HCV protease inhibition assay; type: biochemical; settings: read-out: NS3/4A HCV protease inhibitive activity IC50
Procedure: When sensitive cells were infected with HCV virus, some precursor proteins were translated from uncoated virus RNA in the cytoplasm. According to the protease, the precursor proteins were processed into different viral proteins. Among viral proteins, NS3, a serine protease and RNA helicase, was an important non-structural protein involved in virus protein maturation and virus genome replication.
In this assay, protein (FRET) was prepared and modified with fluorescent protein 5-FAM as a substrate and QXL™520 as a quencher. The substrate was incubated with NS3/4A HCV protease and testing samples, and the fluorescence intensity was measured, according to the mechanism shown in FIG. 7 (C. M. Ma, Yo Wei, Z. G. Wang and M. Hattori: Triterpenes from Cynomorium Songaricium-analysis of HCV Protease Inhibitory Activity, Quantification and Content Change Under the Influence of Heating. J. Nat. Med., 63, 9-14, 2009). In this assay, HCV NS3 Protease Inhibitor 2 was used as positive control.

[2] = test system: Propionicbacterium acnes and lipopolysaccharide treated mice; settings: cited from earlier work
[3] = read-out: HIV-1 protease inhibitive activity IC50

Sequence of dipeptidyl peptidase-IV (DPPIV) (P27487 whole entry, species assumed): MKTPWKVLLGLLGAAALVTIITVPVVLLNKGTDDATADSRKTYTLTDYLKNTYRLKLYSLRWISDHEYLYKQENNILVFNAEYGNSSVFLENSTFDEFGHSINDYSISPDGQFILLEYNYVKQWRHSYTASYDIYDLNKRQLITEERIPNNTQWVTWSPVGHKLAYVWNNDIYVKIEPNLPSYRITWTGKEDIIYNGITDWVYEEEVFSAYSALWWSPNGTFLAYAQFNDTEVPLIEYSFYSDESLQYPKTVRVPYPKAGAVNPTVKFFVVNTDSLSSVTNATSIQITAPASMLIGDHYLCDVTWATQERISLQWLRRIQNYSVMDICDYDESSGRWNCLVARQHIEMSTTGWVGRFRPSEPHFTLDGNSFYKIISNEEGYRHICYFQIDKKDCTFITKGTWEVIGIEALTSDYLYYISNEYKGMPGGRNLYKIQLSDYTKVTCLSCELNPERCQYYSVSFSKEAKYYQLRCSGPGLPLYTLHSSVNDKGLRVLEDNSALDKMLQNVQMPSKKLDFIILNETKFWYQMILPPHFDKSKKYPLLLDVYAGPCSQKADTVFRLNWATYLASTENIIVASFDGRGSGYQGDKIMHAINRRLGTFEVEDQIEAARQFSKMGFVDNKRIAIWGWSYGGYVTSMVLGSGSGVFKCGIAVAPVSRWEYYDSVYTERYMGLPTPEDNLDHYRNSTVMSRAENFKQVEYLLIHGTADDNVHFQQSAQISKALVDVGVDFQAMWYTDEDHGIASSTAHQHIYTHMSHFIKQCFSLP
Sequence of HCV protease (P27958 1027-1657): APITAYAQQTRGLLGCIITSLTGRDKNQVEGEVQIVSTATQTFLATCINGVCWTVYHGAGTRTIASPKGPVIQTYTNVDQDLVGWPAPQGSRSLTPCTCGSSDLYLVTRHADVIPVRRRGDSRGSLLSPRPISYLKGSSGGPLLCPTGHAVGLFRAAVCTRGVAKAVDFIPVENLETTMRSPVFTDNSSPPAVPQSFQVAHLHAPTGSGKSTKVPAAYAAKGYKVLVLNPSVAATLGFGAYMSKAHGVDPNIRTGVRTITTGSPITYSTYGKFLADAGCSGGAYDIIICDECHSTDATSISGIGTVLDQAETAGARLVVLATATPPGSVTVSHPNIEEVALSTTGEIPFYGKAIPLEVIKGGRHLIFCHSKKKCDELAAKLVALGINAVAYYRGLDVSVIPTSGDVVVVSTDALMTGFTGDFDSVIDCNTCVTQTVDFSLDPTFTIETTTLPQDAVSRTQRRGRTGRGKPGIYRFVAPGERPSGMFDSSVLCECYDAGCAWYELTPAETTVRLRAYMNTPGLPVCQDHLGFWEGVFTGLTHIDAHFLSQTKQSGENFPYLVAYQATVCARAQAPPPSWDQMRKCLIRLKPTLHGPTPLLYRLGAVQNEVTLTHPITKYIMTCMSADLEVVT
Sequence of HCV protease (P27958 1658-1711 partner): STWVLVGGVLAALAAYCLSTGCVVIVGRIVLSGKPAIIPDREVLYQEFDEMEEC
Sequence of NS3/4A HCV protease (P27958 1027-1657): as the sequence (P27958 1027-1657) above
Sequence of NS3/4A HCV protease (P27958 1658-1711 partner): as the sequence (P27958 1658-1711 partner) above

| Structure (SMILES) | IC50 (HIV-1 protease; [3]) | IC50 (HIV-1 protease) | IC50 [1] | IC50 (HCV protease) | other results |
| --- | --- | --- | --- | --- | --- |
| CC(C)=CCOc1ccc([C@@H]2C(=O)N(O)C(=O)[C@@H]2CC(C)C)cc1 (relative stereo) [Compound 5, (3R*,4R*)-1-hydroxy-3-isobutyl-4-[4-(3-methyl-2-butenyloxy)phenyl]pyrrolidine-2,5-dione] | 198 µM | – | – | – | – |
| CC(C)=CCOc1ccc(C2=C(CC(C)C)C(=O)NC2=O)cc1 [Compound 2, 3-isobutyl-4-[4-(3-methyl-2-butenyloxy)phenyl]-1H-pyrrol-2,5-dione] | – | 54 µM | 160 µM | – | anti HCV activity (in words) (HCV protease): low activity |
| CC(C)=CCOc1ccc(C2C(=O)N(O)C(=O)/C2=C\C(C)C)cc1 (centres unmarked) [Compound of formula (XIII)] | 16.6 µM | – | – | – | IC50 (NS3/4A HCV protease): 8.7 µM |
| CC(C)=CCOc1ccc(C2=C(CC(C)C)C(=O)N(O)C2=O)cc1 [Compound 3, 3-isobutyl-4-[4-(3-methyl-2-butenyloxy)phenyl]-1H-pyrrol-1-ol-2,5-dione] | – | 6.5 µM | 115 µM | 8.8 µM | protective activity in treated mice [2]: protective activity |
| CC(C)=CCOc1ccc([C@H]2C(=O)N(O)C(=O)[C@@H]2CC(C)C)cc1 (relative stereo) [Compound 4, (3R*,4S*)-1-hydroxy-3-isobutyl-4-[4-(3-methyl-2-butenyloxy)phenyl]pyrrolidine-2,5-dione] | 4.4 µM | – | – | – | – |
| CC(C)=CCOc1ccc(C2=C(CC(C)C)C(=O)OC2=O)cc1 [Compound 1, 3-isobutyl-4-[4-(3-methyl-2-butenyloxy)phenyl]furan-2,5-dione] | – | > 300 µM | 79.5 µM | 2.86 µM | – |
